Earlier results, collected in patent US20240041963A1, “A NUTRACEUTICALS FORMULATION WITH AN ENHANCED ORGANOLEPTIC PROPERTIES USED FOR SCALP AND HAIR CARE” (DiaBliss Consumer Products Pvt Ltd, priority 2020, published 2024).
Like-named read-outs stand apart in the source and are kept apart here.

Tests used:
[1] = test system: men with hair loss; settings: according to the American Academy of Dermatology
[2] = test system: Male Patients with Androgenetic Alopecia; settings: 30 men, 5 mg oral; for Hair Density in 1 sq cm area: Day 0 182.5
[3] = test system: Male Patients with Androgenetic Alopecia; settings: 30 men, 5 mg oral; for Hair Diameter: Day 0 58.5

SMILES | men in whom it slows hair loss [1] | men in whom it stimulates regrowth [1] | Hair Density Increase vs Day 0 ([2]; Week 12 (Day 84)) [%] | Hair Density in 1 sq cm area ([2]; Week 12 (Day 84)) | Hair Density Increase vs Day 0 ([2]; Week 24 (Day 168)) [%] | Hair Density in 1 sq cm area ([2]; Week 24 (Day 168)) | Hair Diameter Increase vs Day 0 ([3]; Week 12 (Day 84)) [%] | Hair Diameter ([3]; Week 12 (Day 84)) [µm] | Hair Diameter Increase vs Day 0 ([3]; Week 24 (Day 168)) [%] | Hair Diameter ([3]; Week 24 (Day 168)) [µm]
CC(C)(C)NC(=O)[C@H]1CC[C@H]2[C@@H]3CC[C@H]4NC(=O)C=C[C@]4(C)[C@H]3CC[C@]12C [Finasteride] | about 88% | about 66% | – | – | – | – | – | – | – | –
Nc1cc(N2CCCCC2)nc(N)[n+]1[O-] [Oral Minoxidil, 2,4-diamino-6-piperidinopyrimidine 3-oxide] | – | – | 14.2 | 208.5 | 19.2 | 217.6 | 10.6 | 64.7 | 15.2 | 67.4
